This is an account of results in patent US20160158375A1, “DIPEPTIDE LINKED MEDICINAL AGENTS” (Indiana University Research and Technology Corporation, priority 2010, published 2016).

Structures are written as SMILES. Read-outs that look alike come from different tables or passages of the source. Square brackets hold non-standard residues; d marks the D form. Peptide text beside a SMILES is read from it. Sar = CNCC(=O)O

Data set [1] can be described thus: Rate of model dipeptide cleavage in PBS (HPLC / LC-MS). The settings on record: for Relative peak area (%), HPLC peak a / Relative peak area (%), HPLC peak b: PBS, 37° C.; for Relative peak area (%), HPLC peak a: peak a molecular weight 702; for Relative peak area (%), HPLC peak b: peak b molecular weight 902. Here is the method: The solution was incubated at 37° C. […] The dipeptide cleavage was quenched by lowering the pH with an equal volume of 0.1% TFA. The rate of cleavage was qualitatively monitored by LC-MS and quantitatively studied by HPLC. The retention time and relative peak area for the prodrug and the parent model peptide were quantified using Peak Simple Chromatography software.
The flow rate was 1 ml/min.
The concentrations of the prodrugs and the model parent peptide were determined by their respective peak areas, ‘a’ and ‘b’ for each of the different collection times (Table 1). […] The slope of this plot provides the rate constant 1′.

The conditions of data set [2]: plasma; for Relative peak area (%), HPLC peak a: peak a molecular weight 702; for Relative peak area (%), HPLC peak b: peak b molecular weight 902.

As to `C[C@@H](O)[C@H](NC(=O)CNC(=O)[C@H](CCCNC(=N)N)NC(=O)[C@H](CO)NC(=O)[C@H](Cc1c[nH]cn1)NC(=O)CN(C)C(=O)C(C)(C)N)C(=O)N[C@@H](Cc1ccccc1)C(N)=O` [Compound 24], the half-life at 1 mg/ml in data set [1] (buffer) is 9 min.
`C[C@H](O)[C@@H](NC(=O)CNC(=O)[C@@H](CCCNC(=N)N)NC(=O)[C@H](NC(=O)[C@@H](Cc1c[nH]cn1)NC(=O)CN(C)C(=O)[C@@H](N)CCCCN)[C@H](C)O)C(=O)N[C@H](Cc1ccccc1)C(N)=O` [peptide B, Lys-Sar-dHdTdRGdTdF-NH2] (H-K[Sar][dH][dT][dR]G[dT][dF]-NH2): the “Relative peak area (%), HPLC peak a” value in data set [2] (5 h) worked out at 17.0%; in data set [2] (11 h), 29.2%; in data set [2] (24 h), 60.2%; in data set [2] (32 h), 54.0%; in data set [2] (48 h), 27.6%. For the same compound, the “Relative peak area (%), HPLC peak b” value in data set [2] (5 h) was 83.0%; in data set [2] (11 h), 70.8%; in data set [2] (24 h) it was 39.8%; in data set [2] (32 h), 46.0%; in data set [2] (48 h), 72.4%.
In the case of `C[C@@H](O)[C@H](NC(=O)CNC(=O)[C@H](CCCNC(=N)N)NC(=O)[C@H](CO)NC(=O)[C@H](Cc1c[nH]cn1)NC(=O)CN(C)C(=O)[C@@H](N)CCCCN)C(=O)N[C@@H](Cc1ccccc1)C(N)=O` [peptide A, Lys-Sar-HSRGTF-NH2] (H-K[Sar]HSRGTF-NH2; N-terminus assumed), the “Relative peak area (%), HPLC peak a” value in data set [1] (5 h) is 26.5%; in data set [1] (8 h), 28.9%; in data set [1] (24 h), 28.8%; in data set [1] (31 h) it was 77.7%; in data set [1] (47 h), 90.0%. For the same compound, the “Relative peak area (%), HPLC peak b” value in data set [1] (5 h) was found to be 73.5%; in data set [1] (8 h), 71.1%; in data set [1] (24 h), 71.2%; in data set [1] (31 h), 22.3%; in data set [1] (47 h), 10.0%.
